Tested on: Plasmodium berghei
Experiment: Luciferase/luciferin-expressing antifolate-resistant parasites were used to infect a culture of HepG2 cells that were pre-incubated with compounds. Infected hepatocytes emit light due to the luciferase reaction. Assay results are presented as the percent inhibition of light emission compared to control. […]
Format: functional
Conditions: sporozoite; for IC90: read-out: LUCIFERASE INFECTION ASSAY - IC90

SMILES | IC90 [µM] | other results
Oc1cccc2c(NC(S)=Nc3ccc(SC(F)F)cc3)cccc12 | 7.7 | IC50 (FFLUC_HILL_SLOPE 69.3, FFLUC_R_SQUARED 0.272, PBLUC_HILL_SLOPE 39, PBLUC_R_SQUARED 0.0559, read-out: LUCIFERASE INFECTION ASSAY - IC50): 7.27 µM
CC(=O)Nc1cccc(-c2ccnc3c2CC(C(=O)NCc2cccs2)O3)c1 (stereo not given) | 3.24 | IC50 (FFLUC_HILL_SLOPE 58.8, FFLUC_R_SQUARED 0.264, HEPG2TOX_HILL_SLOPE 13.5, HEPG2TOX_R_SQUARED 0.74, PBLUC_HILL_SLOPE 13.2, PBLUC_R_SQUARED 0.157, read-out: LUCIFERASE INFECTION ASSAY - IC50): 2.74 µM
Cc1cc(O)c(C(=O)/C=C/c2cccc(C(F)(F)F)c2)c(=O)o1 | > 10 | IC50 (FFLUC_HILL_SLOPE 56.9, FFLUC_R_SQUARED 0.7, read-out: LUCIFERASE INFECTION ASSAY - IC50): > 10 µM
N#C/C(=N\Nc1cc(C(F)(F)F)cc(C(F)(F)F)c1)S(=O)(=O)c1cccs1 | 2 | IC50 (FFLUC_HILL_SLOPE 43.6, FFLUC_R_SQUARED 0.536, HEPG2TOX_HILL_SLOPE 2.45, HEPG2TOX_R_SQUARED 0.984, PBLUC_HILL_SLOPE 3.51, PBLUC_R_SQUARED 0.744, read-out: LUCIFERASE INFECTION ASSAY - IC50): 1.07 µM
CC(C)n1c(Sc2ncc([N+](=O)[O-])s2)nc2cc(Cl)ccc21 | 8.83 | IC50 (FFLUC_HILL_SLOPE 44.5, FFLUC_R_SQUARED 0.755, HEPG2TOX_HILL_SLOPE 8.37, HEPG2TOX_R_SQUARED 0.175, PBLUC_HILL_SLOPE 4.42, PBLUC_R_SQUARED 0.266, read-out: LUCIFERASE INFECTION ASSAY - IC50): 5.37 µM
CC(=O)Nc1ccc(OC(=O)c2cc(C(C)(C)C)nn2Cc2c(C)cc(C)cc2C)cc1 | 3.69 | IC50 (FFLUC_HILL_SLOPE 42.8, FFLUC_R_SQUARED 0.589, PBLUC_HILL_SLOPE 8.27, PBLUC_R_SQUARED 0.64, read-out: LUCIFERASE INFECTION ASSAY - IC50): 2.83 µM
Cc1[nH]c2ccccc2c1C(=O)/C(C#N)=C/c1ccc(-c2ccc(S(=O)(=O)N3CCOCC3)cc2)o1 | > 10 | IC50 (FFLUC_HILL_SLOPE 49.5, FFLUC_R_SQUARED 0.839, HEPG2TOX_HILL_SLOPE 4, HEPG2TOX_R_SQUARED 0.152, PBLUC_HILL_SLOPE 1.9, PBLUC_R_SQUARED 0.247, read-out: LUCIFERASE INFECTION ASSAY - IC50): 5.12 µM
CC(C)(C)c1ccc(C(=N)SC(C(=O)C(F)(F)F)c2ccccc2)cc1 (stereo not given) | 2.03 | IC50 (FFLUC_HILL_SLOPE 64.5, FFLUC_R_SQUARED 0.585, PBLUC_HILL_SLOPE 1.09, PBLUC_R_SQUARED 0.88, read-out: LUCIFERASE INFECTION ASSAY - IC50): 0.269 µM
COc1ccc2c(-c3ccccc3)cc(SC(c3ccccc3)c3ccccc3)nc2c1 | > 10 | IC50 (FFLUC_HILL_SLOPE 74, FFLUC_R_SQUARED 0.292, read-out: LUCIFERASE INFECTION ASSAY - IC50): > 10 µM
Cc1cc(C)c(Nc2nc(-c3c(-c4ccccc4)noc3C)cs2)c(C)c1 | 5.3 | IC50 (FFLUC_HILL_SLOPE 43.6, FFLUC_R_SQUARED 0.276, HEPG2TOX_HILL_SLOPE 3.1, HEPG2TOX_R_SQUARED 0.635, PBLUC_HILL_SLOPE 7.7, PBLUC_R_SQUARED 0.763, read-out: LUCIFERASE INFECTION ASSAY - IC50): 3.98 µM
N#Cc1ccc(/C=N/n2c(-c3ccc(F)cc3)cs/c2=N\c2cccnc2)cc1 | > 10 | IC50 (FFLUC_HILL_SLOPE 41.3, FFLUC_R_SQUARED 0.462, HEPG2TOX_HILL_SLOPE 8.97, HEPG2TOX_R_SQUARED 0.901, PBLUC_HILL_SLOPE 3.58, PBLUC_R_SQUARED 0.653, read-out: LUCIFERASE INFECTION ASSAY - IC50): 5.78 µM
Cc1cc(C(=O)N/N=C/c2ccc([N+](=O)[O-])s2)nn1-c1c(Cl)cc(Cl)cc1Cl | 4.83 | IC50 (FFLUC_HILL_SLOPE 59.9, FFLUC_R_SQUARED 0.709, PBLUC_HILL_SLOPE 2.3, PBLUC_R_SQUARED 0.454, read-out: LUCIFERASE INFECTION ASSAY - IC50): 1.86 µM
CC1CC(=O)C2C(=Nc3ccccc3SC2c2ccc(F)cc2)C1 (stereo not given) | > 9.72 | IC50 (FFLUC_HILL_SLOPE 40.6, FFLUC_R_SQUARED 0.352, PBLUC_HILL_SLOPE 4.94, PBLUC_R_SQUARED 0.608, read-out: LUCIFERASE INFECTION ASSAY - IC50): 7.03 µM
CCCCNC(=O)c1c(NC(=O)c2ccccc2)nc2ccc(C)cn12 | 6.8 | IC50 (FFLUC_HILL_SLOPE 60.4, FFLUC_R_SQUARED 0.28, HEPG2TOX_HILL_SLOPE 6.52, HEPG2TOX_R_SQUARED 0.955, PBLUC_HILL_SLOPE 4.31, PBLUC_R_SQUARED 0.763, read-out: LUCIFERASE INFECTION ASSAY - IC50): 4.08 µM
Nc1c(C(=O)c2ccc(Cl)cc2)sc2nc3c(c(-c4cccs4)c12)CCCC3 | > 7.77 | IC50 (FFLUC_HILL_SLOPE 44.8, FFLUC_R_SQUARED 0.458, PBLUC_HILL_SLOPE 1.88, PBLUC_R_SQUARED 0.367, read-out: LUCIFERASE INFECTION ASSAY - IC50): 5.01 µM
O=C(Nc1nc(-c2ccc(Cl)cc2Cl)cs1)C1CC(=O)N(CCc2ccccc2)C1 (stereo not given) | > 10 | IC50 (FFLUC_HILL_SLOPE 45.5, FFLUC_R_SQUARED 0.597, PBLUC_HILL_SLOPE 12.9, PBLUC_R_SQUARED 0.652, read-out: LUCIFERASE INFECTION ASSAY - IC50): 9.1 µM
CCCNC(=O)c1c(NC(=O)c2cc(F)cc(F)c2)nc2ccccn12 | 2.45 | IC50 (FFLUC_HILL_SLOPE 41.4, FFLUC_R_SQUARED 0.343, HEPG2TOX_HILL_SLOPE 1.12, HEPG2TOX_R_SQUARED 0.682, PBLUC_HILL_SLOPE 5.41, PBLUC_R_SQUARED 0.415, read-out: LUCIFERASE INFECTION ASSAY - IC50): 1.63 µM
COc1cccc(-c2nc3ccc(NC(=O)Nc4ccc(OC(F)(F)F)cc4)cn3n2)c1 | > 10 | IC50 (FFLUC_HILL_SLOPE 45.6, FFLUC_R_SQUARED 0.742, read-out: LUCIFERASE INFECTION ASSAY - IC50): > 10 µM
O=C(Nc1cccc(C(F)(F)F)c1)Nc1ccc2nc(-c3ccco3)nn2c1 | > 10 | IC50 (FFLUC_HILL_SLOPE 40.8, FFLUC_R_SQUARED 0.195, PBLUC_HILL_SLOPE 31.8, PBLUC_R_SQUARED 0.106, read-out: LUCIFERASE INFECTION ASSAY - IC50): 9.83 µM
Cc1ccc(C(=O)Nc2ccccc2Sc2ncc([N+](=O)[O-])s2)cc1 | > 8.88 | IC50 (FFLUC_HILL_SLOPE 77.3, FFLUC_R_SQUARED 0.701, read-out: LUCIFERASE INFECTION ASSAY - IC50): > 8.88 µM
O=c1c2c(-c3ccccc3)csc2nc2n1CC/C2=C\c1cccc(C(F)(F)F)c1 | > 10 | IC50 (FFLUC_HILL_SLOPE 50.3, FFLUC_R_SQUARED 0.583, read-out: LUCIFERASE INFECTION ASSAY - IC50): > 10 µM
CC(=O)Nc1ccc(-c2cnc3ccc(-c4ccc(F)c(Cl)c4)nn23)cc1 | 3.52 | IC50 (FFLUC_HILL_SLOPE 64.9, FFLUC_R_SQUARED 0.6, HEPG2TOX_HILL_SLOPE 8.77, HEPG2TOX_R_SQUARED 0.612, PBLUC_HILL_SLOPE 16.7, PBLUC_R_SQUARED 0.645, read-out: LUCIFERASE INFECTION ASSAY - IC50): 3.09 µM
C/C(=N\NC(=S)Nc1ccccc1)c1ccn[nH]1 | > 12.7 | IC50 (FFLUC_HILL_SLOPE 48.7, FFLUC_R_SQUARED 0.514, PBLUC_HILL_SLOPE 3.68, PBLUC_R_SQUARED 0.194, read-out: LUCIFERASE INFECTION ASSAY - IC50): 8.67 µM
O=C(Cn1ncc(Cl)c(Cl)c1=O)NCC12CC3CC(CC(C3)C1)C2 | > 10 | IC50 (FFLUC_HILL_SLOPE 71.8, FFLUC_R_SQUARED 0.575, read-out: LUCIFERASE INFECTION ASSAY - IC50): > 10 µM
N#Cc1ccsc1NC(=O)COc1ccc([N+](=O)[O-])cc1Cl | > 10 | IC50 (FFLUC_HILL_SLOPE 45.5, FFLUC_R_SQUARED 0.53, PBLUC_HILL_SLOPE 0.51, PBLUC_R_SQUARED 0.745, read-out: LUCIFERASE INFECTION ASSAY - IC50): 0.444 µM
O=C(Nc1ccc2c(c1)OCO2)C1CCN(C(C(=O)c2c[nH]c3ccccc23)c2ccccc2)CC1 (stereo not given) | > 10 | IC50 (FFLUC_HILL_SLOPE 60.7, FFLUC_R_SQUARED 0.292, PBLUC_HILL_SLOPE 4.02, PBLUC_R_SQUARED 0.0454, read-out: LUCIFERASE INFECTION ASSAY - IC50): 7.8 µM
Cc1ccc(-c2ccccc2C(=O)OCC(=O)Nc2ccc(C)c(Cl)c2)cc1 | > 10 | IC50 (FFLUC_HILL_SLOPE 49.8, FFLUC_R_SQUARED 0.336, read-out: LUCIFERASE INFECTION ASSAY - IC50): > 10 µM
FC(F)Oc1ccc(-c2n[nH]cc2Sc2ccc(Cl)cc2)cc1 | > 9.35 | IC50 (FFLUC_HILL_SLOPE 44.1, FFLUC_R_SQUARED 0.44, PBLUC_HILL_SLOPE 8.27, PBLUC_R_SQUARED 0.292, read-out: LUCIFERASE INFECTION ASSAY - IC50): > 9.35 µM
Cn1c(=O)c(C2=NN(C(=O)c3cccs3)C(c3ccco3)C2)c(-c2ccccc2)c2cc(Cl)ccc21 (stereo not given) | > 10 | IC50 (FFLUC_HILL_SLOPE 47.1, FFLUC_R_SQUARED 0.757, PBLUC_HILL_SLOPE 11.3, PBLUC_R_SQUARED 0.251, read-out: LUCIFERASE INFECTION ASSAY - IC50): 9.29 µM
CC1(CCc2ccccc2)NCC(c2ccc(Cl)cc2Cl)c2c1[nH]c1ccccc21 (stereo not given) | > 10 | IC50 (FFLUC_HILL_SLOPE 44.6, FFLUC_R_SQUARED 0.534, read-out: LUCIFERASE INFECTION ASSAY - IC50): > 10 µM
